The subject of one assay is cccDNA. As to the kind of experiment: cccDNA (digital PCR), HBV-infected HepaRG. The class given is cell-based. As to conditions: for IC50: Hepatitis B virus.
In assay [1] the test system is iPS-derived hepatocyte-like cells (HLC). As to the kind of experiment: HBV infection of MB-1-treated HLC (HBsAg released into culture medium). The class given is cell-based, human.
The test system of assay [2] is liver-enriched genes (liver signatures). In words: Whole-genome transcriptome microarray on HLC treated with MB-1. The class given is cell-based, human. As for the experimental part:
FIG. 1: Maturation screen identified a small molecule that enhances maturation of HLC. (A) HLC maturation screening cascade. […] Lane 1-3, MB-1 (5 μM) at 7 d, 24 h, and 2 h, respectively. Lane 4-6, MB-1 (0.5 μM) at 7 d, 24 h, and 2 h, respectively. (C) BioQC liver score analysis of HLC transcriptomes (following treatment with MB-1 for 2 h, 24 h, and 7 day) were compared to those of PHH, HepaRG, and HepG2. (D) Expression of AAT-1a in HLC after 14 day of treatment with MB-1, or 1% DMSO. (E) MB-1-treated HLC support robust HBV infection: HLC (in 96-well plate) were treated with MB-1 (1 μM), or 1% DMSO, for 4 days, then infected with patient-derived HBV (MOI 10, in triplicate). Culture medium was harvested at indicated time points and analyzed for HBsAg.
To fully manifest the potential of HLC as a disease-relevant assay for HBV drug discovery, they have to meet the following criteria: hepatocyte-likeness, scalability, assay robustness, and reproducibility. It is well known that HLC still display immature phenotypes i.e. resemble more fetal than adult, hepatocytes (Baxter et al., 2015; Godoy et al., 2015; Goldring et al., 2017). […]

Experimental findings from US20230248723A1, “PYRROLO[2,3-B]PYRAZINE COMPOUNDS AS CCCDNA INHIBITORS FOR THE TREATMENT OF HEPATITIS B VIRUS (HBV) INFECTION” (Hoffmann-La Roche Inc., priority 2017, published 2023) are described below.

Where two headings read alike, the source gives them in different places.

What is called IC50 is the point on the concentration scale where inhibition reaches its midpoint.

For the compound `O=C(NC(CO)CO)c1c[nH]c2ncc(C3CC3)nc12` [compound 7], the IC50 was 25.9 µM in the assay with cccDNA (HepG2.2.15-derived HBV GT D, MOI 40, read-out: cccDNA IC50 (μM) Median); 27.2 µM in the assay with cccDNA (HepG2.2.15-derived HBV GT D, MOI 125, read-out: cccDNA IC50 (μM) Median); 7.05 µM with cccDNA (patient-derived HBV GT D, MOI 125, read-out: cccDNA IC50 (μM) Median). For the same compound, the “cccDNA IC50 (μM) Median” value in the assay with cccDNA (patient-derived HBV GT D, MOI 40) is “below LLOQ”.

As for `O=C(NCc1cccc(F)c1)c1cccc2[nH]c(-c3c(NC[C@@H](O)c4ccccc4)cc[nH]c3=O)nc12` [MB-1], in assay [1] (HLC treated with MB-1 1 μM for 4 days, patient-derived HBV MOI 10, day 11 pi), the “peak of HBsAg” value was ~16 ng/mL. The “HBsAg” value in assay [1] (HLC with MB-1, HepG2.2.15-derived HBV, MOI 10, day 1 pi) was found to be 0.05 ± 0.01 ng/mL; in assay [1] (HLC with MB-1, HepG2.2.15-derived HBV, MOI 10, day 3 pi), 0.06 ± 0.01 ng/mL; in assay [1] (HLC with MB-1, HepG2.2.15-derived HBV, MOI 10, day 8 pi) it was 0.08 ± 0.01 ng/mL; in assay [1] (HLC with MB-1, HepG2.2.15-derived HBV, MOI 10, day 11 pi), 0.10 ± 0.01 ng/mL; in assay [1] (HLC with MB-1, HepG2.2.15-derived HBV, MOI 10, day 14 pi) it was 0.09 ± 0.01 ng/mL; in assay [1] (HLC with MB-1, HepG2.2.15-derived HBV, MOI 100, day 1 pi) it was 414.13 ± 1.68 ng/mL. Besides, the “HBsAg” value in assay [1] (HLC with MB-1, HepG2.2.15-derived HBV, MOI 100, day 3 pi) was 8.12 ± 2.21 ng/mL; in assay [1] (HLC with MB-1, HepG2.2.15-derived HBV, MOI 100, day 8 pi), 0.36 ± 0.11 ng/mL; in assay [1] (HLC with MB-1, HepG2.2.15-derived HBV, MOI 100, day 11 pi), 0.73 ± 0.20 ng/mL; in assay [1] (HLC with MB-1, HepG2.2.15-derived HBV, MOI 100, day 14 pi), 0.43 ± 0.18 ng/mL; in assay [1] (HLC with MB-1, patient-derived HBV, MOI 10, day 1 pi) it was 0.34 ± 0.06 ng/mL; in assay [1] (HLC with MB-1, patient-derived HBV, MOI 10, day 3 pi) it was 0.93 ± 0.25 ng/mL. Also, the “HBsAg” value in assay [1] (HLC with MB-1, patient-derived HBV, MOI 10, day 8 pi) came out at 5.87 ± 1.34 ng/mL; in assay [1] (HLC with MB-1, patient-derived HBV, MOI 10, day 11 pi), 14.31 ± 2.02 ng/mL; in assay [1] (HLC with MB-1, patient-derived HBV, MOI 10, day 14 pi), 10.39 ± 1.46 ng/mL. Moreover, the “number of liver-enriched genes (liver tissue signature) with up-regulated mRNA expression” value in assay [2] (Gini index >0.7) is ~237. Further, the “number of up-regulated genes that are highly expressed in the liver” value in assay [2] (Gini index >0.8) stood at 137.
